pIC50: −log10 of the molar value.
Biological target: T1, Calmodulin-domain protein kinase 1 (Toxoplasma gondii, UniProt Q9BJF5)
T1 sequence (Q9BJF5 whole entry): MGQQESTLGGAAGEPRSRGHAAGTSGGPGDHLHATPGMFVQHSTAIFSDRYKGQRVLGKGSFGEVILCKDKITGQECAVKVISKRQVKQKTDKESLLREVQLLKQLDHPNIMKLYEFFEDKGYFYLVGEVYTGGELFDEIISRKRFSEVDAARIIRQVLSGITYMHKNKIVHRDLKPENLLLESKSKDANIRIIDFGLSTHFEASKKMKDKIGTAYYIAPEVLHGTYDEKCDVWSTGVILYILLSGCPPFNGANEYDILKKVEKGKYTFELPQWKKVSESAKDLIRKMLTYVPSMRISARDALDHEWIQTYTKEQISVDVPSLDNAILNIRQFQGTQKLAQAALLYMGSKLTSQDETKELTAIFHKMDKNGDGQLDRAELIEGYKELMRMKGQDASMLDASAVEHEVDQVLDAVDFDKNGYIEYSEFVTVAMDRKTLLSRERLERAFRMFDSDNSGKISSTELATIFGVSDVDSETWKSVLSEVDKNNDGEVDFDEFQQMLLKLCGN
Assay: Inhibition Assay: Certain of the compounds prepared as described above were assayed to determine their IC50 for inhibition of T. gondii CDPK1 (tgCDPK1). At least three independent replicates of the assay were conducted for each compound tested.

Compound	pIC50
Nc1ncnc2c1c(Cc1cccc(Cl)c1)nn2[C@H]1C[C@H](O)C1	8.05
Nc1ncnc2c1c(Cc1cccc(C(F)(F)F)c1)nn2[C@H]1C[C@H](O)C1	7.44
Nc1ncnc2c1c(Cc1cccc(F)c1)nn2[C@H]1C[C@H](O)C1	7.55
Nc1ncnc2c1c(Cc1cccc(Cl)c1)nn2[C@H]1C[C@@H](F)C1	8.15
NC(=O)c1ccnc(Oc2nn([C@H]3C[C@H](F)C3)c3ncnc(N)c23)c1	7.16
N#Cc1cccc(Cc2nn([C@H]3C[C@H](F)C3)c3ncnc(N)c23)c1	7.34
Nc1ncnc2c1c(Cc1cccc(F)c1)cn2[C@H]1C[C@H](O)C1	7.55
COc1ccnc(Oc2nn([C@H]3C[C@@H](O)C3)c3ncnc(N)c23)c1	7.43
Nc1ncnc2c1c(Cc1cccc(F)c1)nn2[C@H]1C[C@H](F)C1	7.85

Reference: ChEMBL document CHEMBL5729461, “CDPK1 inhibitors, compositions, and methods related thereto” (2022)
